Measured values taken from patent US20100112600A1, “Methods and compositions for modulating synapse formation” (priority 2006, published 2010).

Legend:
MEF2A Ser408 = assay: Immunoblot of phospho-Ser408 MEF2A in depolarized granule neurons; type: cell-based, rat; settings: granule neurons depolarized with 25 mM KCl; Nim 20 μM, CsA 4 μM
Experimental: Lysates of granule neurons were depolarized with 25 mM KCl were immunoblotted for MEF2A, phospho-Ser408 MEF2A or ERK1/2. Nim=Nimodipine, 20 μM.
Cultures of primary granule neurons were isolated from P6 Long-Evans rats using known methods. Granule neurons were maintained in full medium (BME+10% calf serum (Hyclone), 1 mM each penicillin, streptomycin and L-glutamine and 25 mM KCl). Granule neurons were transfected in DMEM by DNA-calcium phosphate precipitation using standard methods.

endogenous MEF2A = assay: Immunoblot of sumoylation and acetylation of endogenous MEF2A in depolarized granule neurons; type: cell-based, rat
Experimental: In FIG. 3F, granule neurons in non-depolarizing concentrations of KCl (5 mM) were lysed in the presence or absence of the isopeptidase inhibitor N-ethylmaleimide (NEM) and immunoblotted for MEF2A. […] In FIG. 3G, granule neurons are exposed to media containing non-depolarizing (5 mM) or depolarizing (25 mM) concentrations of KCl in the presence of nimodipine (Nim) or its control vehicle (DMSO) were lysed in the presence of NEM and immunoblotted as in FIG. 3F. […] Cultures of primary granule neurons were isolated from P6 Long-Evans rats using known methods. Granule neurons were maintained in full medium (BME+10% calf serum (Hyclone), 1 mM each penicillin, streptomycin and L-glutamine and 25 mM KCl).

Nur77 promoter = assay: Nur77-luciferase reporter gene assay in granule neurons; type: cell-based, rat; settings: depolarized granule neurons
Experimental: FIG. 5C is a bar graph. […] Treatment with CsA prevented depolarization-induced expression of the WT Nur77-luciferase reporter gene (p<0.0001, ANOVA; n=6), but had no effect on MREmut Nur77-luciferase reporter gene.
(§1) Luciferase assays were performed as described (Shalizi et al., 2006, Science 311: 1012-1017) with minor modifications. Granule neurons were transfected with the reporter constructs pNur77-luc or pNur77mut-luc and pRL-TK and the indicated hpRNA expression plasmids, and an expression construct for Bcl-XL. Granule neurons were switched from full medium to fresh BME supplemented with 5% calf serum (Hyclone) 72 hours after transfection and incubated overnight. 293T cells maintained as described were cotransfected with p5G4luc or pMEF2×3luc and pRL-TK reporter constructs and the indicated expression plasmids by DNA-calcium phosphate precipitation. Fresh growth media was added within 24 hours of transfection. Cells were lysed 48 hours after transfection. In both neurons and 293T cells, firefly-and renilla-luciferase activities were determined using a dual-luciferase assay kit (Promega) according to the manufacturers instructions.
Primary rat cerebellar granule neurons were transfected with the U6/piasx1, U6/piasx2, or control U6 RNAi plasmid together with a luciferase reporter gene controlled by the Nur77 promoter containing two MEF2 response elements (MREs). […]

[1] = tested on: MEF2-response elements (MRE-luciferase); assay: MRE-luciferase reporter gene assay in cells; type: cell-based; settings: co-transfected expression plasmid
Experimental: FIG. 4B is a bar graph and a series of immunoblots. Cells coexpressing MEF2A and increasing amounts of MEF2A-SUMO together with a 3-MRE luciferase reporter gene (pMEF2×3-luc) and pRL-TK. […] Lysates were also immunoblotted for MEF2 or ERK1/2.
as §1
Sumoylation of MEF2A represses MEF2-dependent transcription. The effect of PIASx expression on MEF2-dependent transcription in cells was examined. […]

[2] = tested on: granule neuron dendritic claws; assay: Dendritic claw number of granule neurons in organotypic cerebellar slices; type: cell-based, rat
Experimental: The role that MEF2A plays in synaptic dendritic development in the cerebellar cortex was determined. […] To visualize granule neurons undergoing postsynaptic differentiation, organotypic cerebellar slices prepared from postnatal day 9 (P9) rat pups were transfected with an expression plasmid encoding green fluorescent protein (GFP). Transfected granule neurons in the internal granular layer (IGL) had the typical small cell body with associated parallel axonal fibers and few dendrites (FIGS. 1A and 1B). Many dendrites harbored structures with the appearance of dendritic claws that were identified based on classic descriptions as: (i) located at the end of a dendrite, (ii) having cup- or sickle-like appearance, and (iii) displaying undulating or serrated inner surfaces (FIGS. 1C and 1D). […] The effect of MEF2A knockdown on granule neuron dendritic morphogenesis was next determined. Cerebellar slices were transfected with the U6/mef2a plasmid that encodes MEF2A hairpin RNAs (MEF2AhpRNA) or the control U6 plasmid together with a GFP expression plasmid.
Slices were prepared and processed using known methods. […]
Microscopy was carried out using standard methods. […] Images of transfected granule neurons were analyzed using SPOT software for dendritic length, number of primary dendrites, and number of branches per primary dendrite as described.

cyclosporin A
depolarization-induced dephosphorylation of MEF2A at Ser408 (MEF2A Ser408): blocked | acetylation of endogenous MEF2A (endogenous MEF2A; depolarized neurons): decreased | sumoylation of endogenous MEF2A (endogenous MEF2A; depolarized neurons (25 mM KCl)): increased | MREmut Nur77-luciferase reporter gene (Nur77 promoter; Nur77 promoter with mutant MRE): no effect | depolarization-induced expression of the WT Nur77-luciferase reporter gene (Nur77 promoter; Nur77 promoter with wild type MRE): prevented

B1: PIASx: MEF2A SUMO E3 ligase; PIASxα and PIASxβ isoforms collectively (protein, UniProt O75928 1-621, looked up)
E3 SUMO-protein ligase PIAS2: MADFEELRNMVSSFRVSELQVLLGFAGRNKSGRKHDLLMRALHLLKSGCSPAVQIKIRELYRRRYPRTLEGLSDLSTIKSSVFSLDGGSSPVEPDLAVAGIHSLPSTSVTPHSPSSPVGSVLLQDTKPTFEMQQPSPPIPPVHPDVQLKNLPFYDVLDVLIKPTSLVQSSIQRFQEKFFIFALTPQQVREICISRDFLPGGRRDYTVQVQLRLCLAETSCPQEDNYPNSLCIKVNGKLFPLPGYAPPPKNGIEQKRPGRPLNITSLVRLSSAVPNQISISWASEIGKNYSMSVYLVRQLTSAMLLQRLKMKGIRNPDHSRALIKEKLTADPDSEIATTSLRVSLMCPLGKMRLTIPCRAVTCTHLQCFDAALYLQMNEKKPTWICPVCDKKAAYESLILDGLFMEILNDCSDVDEIKFQEDGSWCPMRPKKEAMKVSSQPCTKIESSSVLSKPCSVTVASEASKKKVDVIDLTIESSSDEEEDPPAKRKCIFMSETQSSPTKGVLMYQPSSVRVPSVTSVDPAAIPPSLTDYSVPFHHTPISSMSSDLPGLDFLSLIPVDPQYCPPMFLDSLTSPLTASSTSVTTTSSHESSTHVSSSSSRSETGVITSSGSNIPDIISLD
MRE-dependent transcription (luciferase reporter) [1]: potently inhibited | dendritic claw number on expression of the construct ([2]; cerebellar slices transfected with expression plasmid vs control vector): robustly increased

B2: PIASx-Res: wild type PIASx protein expressed from cDNA resistant to piasx2 hpRNAs (protein, UniProt O75928 1-621, looked up)
E3 SUMO-protein ligase PIAS2: MADFEELRNMVSSFRVSELQVLLGFAGRNKSGRKHDLLMRALHLLKSGCSPAVQIKIRELYRRRYPRTLEGLSDLSTIKSSVFSLDGGSSPVEPDLAVAGIHSLPSTSVTPHSPSSPVGSVLLQDTKPTFEMQQPSPPIPPVHPDVQLKNLPFYDVLDVLIKPTSLVQSSIQRFQEKFFIFALTPQQVREICISRDFLPGGRRDYTVQVQLRLCLAETSCPQEDNYPNSLCIKVNGKLFPLPGYAPPPKNGIEQKRPGRPLNITSLVRLSSAVPNQISISWASEIGKNYSMSVYLVRQLTSAMLLQRLKMKGIRNPDHSRALIKEKLTADPDSEIATTSLRVSLMCPLGKMRLTIPCRAVTCTHLQCFDAALYLQMNEKKPTWICPVCDKKAAYESLILDGLFMEILNDCSDVDEIKFQEDGSWCPMRPKKEAMKVSSQPCTKIESSSVLSKPCSVTVASEASKKKVDVIDLTIESSSDEEEDPPAKRKCIFMSETQSSPTKGVLMYQPSSVRVPSVTSVDPAAIPPSLTDYSVPFHHTPISSMSSDLPGLDFLSLIPVDPQYCPPMFLDSLTSPLTASSTSVTTTSSHESSTHVSSSSSRSETGVITSSGSNIPDIISLD
modifications: expressed from hpRNA-resistant cDNA
notes: wild type PIASx protein expressed from cDNA resistant to piasx2 hpRNAs
number of claws restored, relative to control U6 transfected cerebellar slices ([2]; expression in the background of piasx2 RNAi): ~80%
